Measurements: ChEMBL document CHEMBL1128109, “Phenolic replacements for cysteine in farnesyl transferase inhibitors based on CVFM” (Bioorg Med Chem Lett, 1995)

Assays:
[1] = target: T1, Protein farnesyltransferase (Rattus norvegicus, UniProt Q02293+Q04631); experiment: Inhibition of farnesyl transferase; assay type: protein-complex assay
[2] = target: T1, Protein farnesyltransferase; experiment: Inhibitory activity against Farnesyl transferase; 8.5-27.0; assay type: protein-complex assay

SMILES	IC50 [1]	IC50 [2]
CC[C@H](C)[C@H](NC(=O)[C@@H](NC(=O)[C@@H](N)CO)C(C)C)C(=O)N[C@@H](CCSC)C(=O)O	> 100 µM	
CSCC[C@H](NC(=O)[C@H](Cc1ccccc1)NC(=O)[C@@H](NCc1ncccc1O)C(C)C)C(=O)O	30 µM	
CCCOC(=O)c1ccc(O)c(CN[C@H](C(=O)N[C@@H](Cc2ccccc2)C(=O)N[C@@H](CCSC)C(=O)O)C(C)C)c1	~100 µM	
CSCC[C@H](NC(=O)[C@H](Cc1ccccc1)NC(=O)[C@@H](NCc1cccc(O)c1)C(C)C)C(=O)O	13 µM	
CSCC[C@H](NC(=O)[C@H](Cc1ccccc1)NC(=O)[C@@H](NC(c1ncccc1O)c1ncccc1O)C(C)C)C(=O)O	30 µM	
CSCC[C@H](NC(=O)[C@H](Cc1ccccc1)NC(=O)[C@@H](NCc1ccccc1)C(C)C)C(=O)O	21 µM	
CSCC[C@H](NC(=O)[C@H](Cc1ccccc1)NC(=O)[C@@H](NCc1ccccc1SC(c1ccccc1)c1ccccc1)C(C)C)C(=O)O	~100 µM	
COCCOCOc1ccc(C(F)(F)F)cc1CN[C@H](C(=O)N[C@@H](Cc1ccccc1)C(=O)N[C@@H](CCSC)C(=O)O)C(C)C	16 µM	
CSCC[C@H](NC(=O)[C@H](Cc1ccccc1)NC(=O)[C@@H](NCc1cc(O)ccc1O)C(C)C)C(=O)O	24 µM	
CSCC[C@H](NC(=O)[C@H](Cc1ccccc1)NC(=O)[C@@H](NCc1cc(C(=O)O)ccc1O)C(C)C)C(=O)O		8.5 µM
CSCC[C@H](NC(=O)[C@H](Cc1ccccc1)NC(=O)[C@@H](NCc1cccc(OC/C=C(\C)CC/C=C(\C)CCC=C(C)C)c1O)C(C)C)C(=O)O	70 µM	
CSCC[C@H](NC(=O)[C@H](Cc1ccccc1)NC(=O)[C@@H](NCc1ccc(O)cc1)C(C)C)C(=O)O	17 µM	
CSCC[C@H](NC(=O)[C@H](Cc1ccccc1)NC(=O)[C@@H](NCc1ccccc1S)C(C)C)C(=O)O	22 µM	

Results, then the compound that gave them:

IC50 [1]	IC50 [2]	SMILES
2.3 µM		CSCC[C@H](NC(=O)[C@H](Cc1ccccc1)NC[C@@H](NCc1cc(Cl)ccc1O)C(C)C)C(=O)O
0.45 µM		CSCC[C@H](NC(=O)[C@H](Cc1ccccc1)NC(=O)[C@@H](NCc1cc(Br)ccc1O)C(C)C)C(=O)O
0.76 µM		COCCOCOc1ccc(Cl)cc1CN[C@H](C(=O)N[C@@H](Cc1ccccc1)C(=O)N[C@@H](CCSC)C(=O)O)C(C)C
2.4 µM		CSCC[C@H](NC(=O)[C@H](Cc1ccccc1)NC(=O)[C@@H](NCc1ccccc1O)C(C)C)C(=O)O
3.8 µM		COc1ccc(O)c(CN[C@H](C(=O)N[C@@H](Cc2ccccc2)C(=O)N[C@@H](CCSC)C(=O)O)C(C)C)c1
0.5 µM		CSCC[C@H](NC(=O)[C@H](Cc1ccccc1)NC(=O)[C@@H](NCc1cc(Cl)ccc1O)C(C)C)C(=O)O
2.1 µM		CSCC[C@H](NC(=O)[C@H](Cc1ccccc1)NC(=O)[C@@H](NCc1cc(C(F)(F)F)ccc1O)C(C)C)C(=O)O
1.6 µM		CC(C)[C@H](NCc1cc(F)ccc1O)C(=O)N[C@@H](Cc1ccccc1)C(=O)N[C@@H](CC[S+](C)[O-])C(=O)O (some centres undefined)
2.5 µM		CSCC[C@H](NC(=O)[C@H](Cc1ccccc1)NC(=O)[C@@H](NCc1cccc(F)c1O)C(C)C)C(=O)O
0.25 µM		CC[C@H](C)[C@H](NC(=O)[C@@H](NC(=O)[C@@H](N)CS)C(C)C)C(=O)N[C@@H](CCSC)C(=O)O
6.3 µM		CSCC[C@H](NC(=O)[C@H](Cc1ccccc1)NC(=O)[C@@H](NCc1c(O)ccc2ccccc12)C(C)C)C(=O)O
